From the supplement of paper PMC10307832

Assays:
Experiment in all cases: relative viability (nuclei count vs DMSO), 5 days (fraction); higher = more cells survive
[1] = compound: CC1=C(C(=NN1)C)CC2=C(C3=C(S2)N(C(=O)N(C3=O)C)CC(C)C)C(=O)N4C[C@@H](CO4)O + COc1cccc2cc(-c3nc([C@H]4CC[C@H](C(=O)O)CC4)n4ncnc(N)c34)[nH]c12 [OSI-027] (partner 0.5 µM)
How it was run: (§1)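 Nuclei were stained with Hoechst during a one-step fixation (final 0.05% Triton X-100, 1% formaldehyde, 1 ug/ml Hoechst) carried out 5 days after dosing, then counted on 4× images. The cells, lung cancer lines in 1536-well plates, had been dosed by pin tool the day after seeding with one drug alone or a fixed anchor-drug dose plus five library-drug doses (not always all listed) in √10 steps. Relative viability is the nuclei count in treated wells divided by that in vehicle wells, and each value is the median of duplicate plates.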

[2] = compound: CC1=C(C(=NN1)C)CC2=C(C3=C(S2)N(C(=O)N(C3=O)C)CC(C)C)C(=O)N4C[C@@H](CO4)O + NC(=O)Nc1cc(-c2cccc(F)c2)sc1C(=O)N[C@H]1CCCNC1 [AZD7762] (partner 0.2 µM)
How it was run: as §1

[3] = compound: Cc1ccccc1C(C(=O)NC1CCCCC1)N(C(=O)Cn1ccnc1C)c1cccc(F)c1 [IDH-C35] + Cc1nc(NC(=O)N2CCC[C@H]2C(N)=O)sc1-c1ccnc(C(C)(C)C(F)(F)F)c1 [Alpelisib] (partner 2 µM)
How it was run: as §1

[4] = compound: CC1=C(C(=NN1)C)CC2=C(C3=C(S2)N(C(=O)N(C3=O)C)CC(C)C)C(=O)N4C[C@@H](CO4)O + Cc1cc(Nc2cc(N3CCN(C)CC3)nc(Sc3ccc(NC(=O)C4CC4)cc3)n2)n[nH]1 [Tozasertib] (partner 0.1 µM)
How it was run: as §1

NCI-H2126 was tested, and the relative viability ([1]; first compound 0.0025 µM) was 0.78, the relative viability ([1]; first compound 0.007906 µM) was 0.669 and the relative viability ([1]; first compound 0.025 µM) was 0.787. For the same cell line, the relative viability ([1]; first compound 0.07906 µM) was 0.661, the relative viability ([1]; first compound 0.25 µM) was 0.684 and the relative viability ([2]; first compound 0.0025 µM) was 1.06. For the same cell line, the relative viability ([2]; first compound 0.007906 µM) was 1.08, the relative viability ([2]; first compound 0.025 µM) was 0.943 and the relative viability ([2]; first compound 0.07906 µM) was 0.867. It also gave a relative viability ([2]; first compound 0.25 µM) of 1.05, a relative viability ([3]; first compound 0.08 µM) of 0.766 and a relative viability ([3]; first compound 0.253 µM) of 0.758. It also gave a relative viability ([3]; first compound 0.8 µM) of 0.745, a relative viability ([3]; first compound 2.53 µM) of 0.737 and a relative viability ([3]; first compound 8 µM) of 0.752. The relative viability ([4]; first compound 0.0025 µM) was 0.923, the relative viability ([4]; first compound 0.007906 µM) was 0.835 and the relative viability ([4]; first compound 0.025 µM) was 0.832. It also gave a relative viability ([4]; first compound 0.07906 µM) of 0.788 and a relative viability ([4]; first compound 0.25 µM) of 0.901.

In the case of NCI-H3122, the relative viability ([1]; first compound 0.0025 µM) is reported as 0.912, the relative viability ([1]; first compound 0.007906 µM) is reported as 0.765 and the relative viability ([1]; first compound 0.025 µM) is reported as 0.927. It also gave a relative viability ([1]; first compound 0.07906 µM) of 1.04, a relative viability ([1]; first compound 0.25 µM) of 0.989 and a relative viability ([2]; first compound 0.0025 µM) of 1.03. It also gave a relative viability ([2]; first compound 0.007906 µM) of 1.09, a relative viability ([2]; first compound 0.025 µM) of 1.02 and a relative viability ([2]; first compound 0.07906 µM) of 0.973. The relative viability ([2]; first compound 0.25 µM) was 1.02, the relative viability ([3]; first compound 0.08 µM) was 0.904 and the relative viability ([3]; first compound 0.253 µM) was 0.739. The relative viability ([3]; first compound 0.8 µM) was 0.729, the relative viability ([3]; first compound 2.53 µM) was 0.78 and the relative viability ([3]; first compound 8 µM) was 0.849. For the same cell line, the relative viability ([4]; first compound 0.0025 µM) was 0.37, the relative viability ([4]; first compound 0.007906 µM) was 0.242 and the relative viability ([4]; first compound 0.025 µM) was 0.376. The relative viability ([4]; first compound 0.07906 µM) was 0.414 and the relative viability ([4]; first compound 0.25 µM) was 0.485.

NCI-H1975 gave a relative viability ([1]; first compound 0.0025 µM) of 0.751, a relative viability ([1]; first compound 0.007906 µM) of 0.648 and a relative viability ([1]; first compound 0.025 µM) of 0.802. The relative viability ([1]; first compound 0.07906 µM) was 0.804, the relative viability ([1]; first compound 0.25 µM) was 0.879 and the relative viability ([2]; first compound 0.0025 µM) was 0.709. It also gave a relative viability ([2]; first compound 0.007906 µM) of 0.691, a relative viability ([2]; first compound 0.025 µM) of 0.735 and a relative viability ([2]; first compound 0.07906 µM) of 0.723. It also gave a relative viability ([2]; first compound 0.25 µM) of 0.771, a relative viability ([3]; first compound 0.08 µM) of 0.55 and a relative viability ([3]; first compound 0.253 µM) of 0.636. For the same cell line, the relative viability ([3]; first compound 0.8 µM) was 0.712, the relative viability ([3]; first compound 2.53 µM) was 0.658 and the relative viability ([3]; first compound 8 µM) was 0.654. It also gave a relative viability ([4]; first compound 0.0025 µM) of 0.801, a relative viability ([4]; first compound 0.007906 µM) of 0.682 and a relative viability ([4]; first compound 0.025 µM) of 0.791. For the same cell line, the relative viability ([4]; first compound 0.07906 µM) was 0.905 and the relative viability ([4]; first compound 0.25 µM) was 0.739.

NCI-H1944 gave a relative viability ([1]; first compound 0.0025 µM) of 0.434, a relative viability ([1]; first compound 0.007906 µM) of 0.45 and a relative viability ([1]; first compound 0.025 µM) of 0.416. The relative viability ([1]; first compound 0.07906 µM) was 0.427, the relative viability ([1]; first compound 0.25 µM) was 0.391 and the relative viability ([2]; first compound 0.0025 µM) was 0.531. For the same cell line, the relative viability ([2]; first compound 0.007906 µM) was 0.524, the relative viability ([2]; first compound 0.025 µM) was 0.466 and the relative viability ([2]; first compound 0.07906 µM) was 0.478. The relative viability ([2]; first compound 0.25 µM) was 0.51, the relative viability ([3]; first compound 0.08 µM) was 0.848 and the relative viability ([3]; first compound 0.253 µM) was 0.911. The relative viability ([3]; first compound 0.8 µM) was 0.826, the relative viability ([3]; first compound 2.53 µM) was 0.75 and the relative viability ([3]; first compound 8 µM) was 0.81. It also gave a relative viability ([4]; first compound 0.0025 µM) of 0.263, a relative viability ([4]; first compound 0.007906 µM) of 0.269 and a relative viability ([4]; first compound 0.025 µM) of 0.246. The relative viability ([4]; first compound 0.07906 µM) was 0.25 and the relative viability ([4]; first compound 0.25 µM) was 0.253.

In the case of LU99A, the relative viability ([1]; first compound 0.0025 µM) is reported as 0.339, the relative viability ([1]; first compound 0.007906 µM) is reported as 0.335 and the relative viability ([1]; first compound 0.025 µM) is reported as 0.347. It also gave a relative viability ([1]; first compound 0.07906 µM) of 0.309, a relative viability ([1]; first compound 0.25 µM) of 0.294 and a relative viability ([2]; first compound 0.0025 µM) of 0.333. It also gave a relative viability ([2]; first compound 0.007906 µM) of 0.379, a relative viability ([2]; first compound 0.025 µM) of 0.326 and a relative viability ([2]; first compound 0.07906 µM) of 0.311. For the same cell line, the relative viability ([2]; first compound 0.25 µM) was 0.337, the relative viability ([3]; first compound 0.08 µM) was 0.49 and the relative viability ([3]; first compound 0.253 µM) was 0.514. For the same cell line, the relative viability ([3]; first compound 0.8 µM) was 0.553, the relative viability ([3]; first compound 2.53 µM) was 0.517 and the relative viability ([3]; first compound 8 µM) was 0.562. It also gave a relative viability ([4]; first compound 0.0025 µM) of 0.24, a relative viability ([4]; first compound 0.007906 µM) of 0.285 and a relative viability ([4]; first compound 0.025 µM) of 0.279. The relative viability ([4]; first compound 0.07906 µM) was 0.274 and the relative viability ([4]; first compound 0.25 µM) was 0.283.

In the case of SW 1573, the relative viability ([1]; first compound 0.0025 µM) is reported as 0.711, the relative viability ([1]; first compound 0.007906 µM) is reported as 0.846 and the relative viability ([1]; first compound 0.025 µM) is reported as 0.527. The relative viability ([1]; first compound 0.07906 µM) was 0.69, the relative viability ([1]; first compound 0.25 µM) was 0.64 and the relative viability ([3]; first compound 0.08 µM) was 0.745. The relative viability ([3]; first compound 0.253 µM) was 0.699, the relative viability ([3]; first compound 0.8 µM) was 0.685 and the relative viability ([3]; first compound 2.53 µM) was 0.692. It also gave a relative viability ([3]; first compound 8 µM) of 0.754, a relative viability ([4]; first compound 0.0025 µM) of 0.16 and a relative viability ([4]; first compound 0.007906 µM) of 0.171. The relative viability ([4]; first compound 0.025 µM) was 0.198, the relative viability ([4]; first compound 0.07906 µM) was 0.284 and the relative viability ([4]; first compound 0.25 µM) was 0.214.

For NCI-H2347, the relative viability ([1]; first compound 0.0025 µM) was 0.472, the relative viability ([1]; first compound 0.007906 µM) was 0.496 and the relative viability ([1]; first compound 0.025 µM) was 0.444. For the same cell line, the relative viability ([1]; first compound 0.07906 µM) was 0.331, the relative viability ([1]; first compound 0.25 µM) was 0.354 and the relative viability ([2]; first compound 0.0025 µM) was 0.739. For the same cell line, the relative viability ([2]; first compound 0.007906 µM) was 0.697, the relative viability ([2]; first compound 0.025 µM) was 0.734 and the relative viability ([2]; first compound 0.07906 µM) was 0.718. For the same cell line, the relative viability ([2]; first compound 0.25 µM) was 0.667, the relative viability ([3]; first compound 0.08 µM) was 1.14 and the relative viability ([3]; first compound 0.253 µM) was 1.12. The relative viability ([3]; first compound 0.8 µM) was 1.03, the relative viability ([3]; first compound 2.53 µM) was 1.16 and the relative viability ([3]; first compound 8 µM) was 1.03. It also gave a relative viability ([4]; first compound 0.0025 µM) of 0.584, a relative viability ([4]; first compound 0.007906 µM) of 0.591 and a relative viability ([4]; first compound 0.025 µM) of 0.54. The relative viability ([4]; first compound 0.07906 µM) was 0.522 and the relative viability ([4]; first compound 0.25 µM) was 0.727.

NCI-H2009 was tested, and the relative viability ([1]; first compound 0.0025 µM) was 0.742, the relative viability ([1]; first compound 0.007906 µM) was 0.701 and the relative viability ([1]; first compound 0.025 µM) was 0.616. It also gave a relative viability ([1]; first compound 0.07906 µM) of 0.706, a relative viability ([1]; first compound 0.25 µM) of 0.695 and a relative viability ([3]; first compound 0.08 µM) of 1.24. For the same cell line, the relative viability ([3]; first compound 0.253 µM) was 1.12, the relative viability ([3]; first compound 0.8 µM) was 1.1 and the relative viability ([3]; first compound 2.53 µM) was 1.15. The relative viability ([3]; first compound 8 µM) was 1.1, the relative viability ([4]; first compound 0.0025 µM) was 0.751 and the relative viability ([4]; first compound 0.007906 µM) was 0.695. For the same cell line, the relative viability ([4]; first compound 0.025 µM) was 0.779, the relative viability ([4]; first compound 0.07906 µM) was 0.829 and the relative viability ([4]; first compound 0.25 µM) was 0.745.

COR-L23 was tested, and the relative viability ([1]; first compound 0.0025 µM) was 0.876, the relative viability ([1]; first compound 0.007906 µM) was 0.761 and the relative viability ([1]; first compound 0.025 µM) was 0.68. For the same cell line, the relative viability ([1]; first compound 0.07906 µM) was 0.678, the relative viability ([1]; first compound 0.25 µM) was 0.793 and the relative viability ([3]; first compound 0.08 µM) was 0.759. It also gave a relative viability ([3]; first compound 0.253 µM) of 0.765, a relative viability ([3]; first compound 0.8 µM) of 0.782 and a relative viability ([3]; first compound 2.53 µM) of 0.769. The relative viability ([3]; first compound 8 µM) was 0.746, the relative viability ([4]; first compound 0.0025 µM) was 0.155 and the relative viability ([4]; first compound 0.007906 µM) was 0.163. It also gave a relative viability ([4]; first compound 0.025 µM) of 0.172, a relative viability ([4]; first compound 0.07906 µM) of 0.18 and a relative viability ([4]; first compound 0.25 µM) of 0.163.
